The source of these data is patent publication US7135466B2 (Kirin Beer Kabushiki Kaisha, priority 1999, dated 2006).

Like-named read-outs stand apart in the source and are kept apart here. Bounds are passed on as bounds.

In the test the target is T1, c-kit (Homo sapiens, UniProt P10721).
T1 construct: MO7e (human megakaryocytic leukemia cell line) which had been arrested for 20 hr; endogenous in cells; host or cells: MO7e human megakaryocytic leukemia cell line
The test can be described thus: Inhibitory activity against c-kit autophosphorylation (MO7e cells, h-SCF). The format is cell-based. Conditions: for IC50: MO7e cells, read-out: c-kit IC50; for inhibition at 1 µM: Mo7e, at 1000 nM. On the procedure: Inhibitory Activity Against c-kit Autophosphorylation
MO7e (human megakaryocytic leukemia cell line) which had been arrested for 20 hr was seeded into 96 well plates at an amount of 2×10^5 per well. A solution of a test compound in DMSO was added, and a reaction was then allowed to proceed for one hr. Thereafter, the cells were stimulated by 50 ng/ml of h-SCF for 5 min, followed by replacement with lysate buffer to solubilize the cells.
Next, the solubilized cell sap was transferred to a 96-well plate with an anti-phosphotyrosine antibody (PY-20) previously immobilized thereon, and a reaction was allowed to proceed. Thereafter, the cells were reacted with an anti-c-kit antibody (c-19, Santa Cruz) as a primary antibody and were labelled with GAR (anti-rabbit IgG, horseradish peroxidase, Amersham) as a secondary antibody. Color development was then carried out in a peroxidase color development kit (Sumitomo Bakelite Co., Ltd.), and the absorbance was measured at a wavelength of 450 nm.

Where [1] appears, read: figure within parentheses in −( ) or >1000( ).

T1 sequence (P10721 26-976): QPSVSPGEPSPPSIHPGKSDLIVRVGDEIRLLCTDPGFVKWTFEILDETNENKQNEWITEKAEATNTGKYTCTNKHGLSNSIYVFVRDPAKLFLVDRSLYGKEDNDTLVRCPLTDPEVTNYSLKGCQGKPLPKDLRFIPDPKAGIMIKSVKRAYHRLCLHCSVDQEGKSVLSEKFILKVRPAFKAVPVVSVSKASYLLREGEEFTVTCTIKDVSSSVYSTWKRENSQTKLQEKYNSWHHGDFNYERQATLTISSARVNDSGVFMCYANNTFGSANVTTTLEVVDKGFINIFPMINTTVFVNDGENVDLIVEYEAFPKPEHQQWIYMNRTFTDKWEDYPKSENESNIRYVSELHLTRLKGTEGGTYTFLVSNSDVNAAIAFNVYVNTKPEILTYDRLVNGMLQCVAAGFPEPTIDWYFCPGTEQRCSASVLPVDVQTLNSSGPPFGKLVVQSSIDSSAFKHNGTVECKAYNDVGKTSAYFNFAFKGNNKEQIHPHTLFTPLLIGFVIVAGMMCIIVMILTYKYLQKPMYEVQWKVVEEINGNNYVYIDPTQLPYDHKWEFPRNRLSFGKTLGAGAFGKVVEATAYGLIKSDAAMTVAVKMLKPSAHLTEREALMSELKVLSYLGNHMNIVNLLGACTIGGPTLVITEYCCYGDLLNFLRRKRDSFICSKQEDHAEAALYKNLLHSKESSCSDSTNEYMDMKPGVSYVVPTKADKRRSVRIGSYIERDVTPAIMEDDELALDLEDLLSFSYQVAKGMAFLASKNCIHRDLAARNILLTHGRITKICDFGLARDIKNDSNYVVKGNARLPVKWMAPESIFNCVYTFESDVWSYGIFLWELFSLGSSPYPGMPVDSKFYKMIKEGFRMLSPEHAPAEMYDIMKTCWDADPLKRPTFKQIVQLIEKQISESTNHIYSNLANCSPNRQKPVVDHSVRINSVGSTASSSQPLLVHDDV

For “4-Methylbenzyl {2-chloro-4-[(6,7-dimethoxy-4-quinazolinyl)oxy]anilino}methanethioate [Example 111]”, the IC50 (h-SCF 50 ng/ml) was 750 nM.

For the compound “4-Methylbenzyl {4-[(6,7-dimethoxy-4-quinazolinyl)oxy]anilino}methanethioate [Example 110]”, the IC50 (h-SCF 50 ng/ml) came to 110 nM.

Turning to `COc1cc2nccc(Oc3ccc(NC(=O)SCc4ccc(C)cc4)cc3)c2cc1OC` [Example 107, 4-Methylbenzyl {4-[(6,7-dimethoxy-4-quinolyl)oxy]anilino}methanethioate], the IC50 (h-SCF 50 ng/ml) turned out to be 372 nM.

Regarding `COc1cc2nccc(Oc3ccc(NC(=O)SCc4ccc(C)cc4)c(C)c3C)c2cc1OC` [Example 108, 4-Methylbenzyl {4-[(6,7-dimethoxy-4-quinolyl)oxy]-2,3-dimethylanilino}methanethioate], the IC50 (h-SCF 50 ng/ml) is 180 nM.

On to `COc1cc2nccc(Oc3cc(C)c(NC(=O)SCc4ccc(C)cc4)cc3C)c2cc1OC` [Example 109, 4-Methylbenzyl {4-[(6,7-dimethoxy-4-quinolyl)oxy]-2,5-dimethylanilino}methanethioate], for which, for the setting “h-SCF 50 ng/ml”, the IC50 is 412 nM.

With `COc1cc2nccc(Oc3ccc(NC(=O)Oc4ccccc4)cc3)c2cc1OC` [Example 216, Phenyl N-{4-[(6,7-dimethoxy-4-quinolyl)oxy]phenyl}carbamate], the IC50 (h-SCF 50 ng/ml) is 19 nM.

For the compound `COc1cc2nccc(Oc3ccc(NC(=O)Oc4ccccc4)c(C)c3C)c2cc1OC` [Example 217, Phenyl N-{4-[(6,7-dimethoxy-4-quinolyl)oxy]-2,3-dimethylphenyl}carbamate], the IC50 (h-SCF 50 ng/ml) stood at 39 nM.

In the case of `COc1cc2nccc(Oc3cc(C)c(NC(=O)OCc4ccccc4)cc3C)c2cc1OC` [Example 218, Benzyl N-{4-[(6,7-dimethoxy-4-quinolyl)oxy]-2,5-dimethylphenyl}carbamate], under “h-SCF 50 ng/ml”, the IC50 was 123 nM.

Take `COc1cc2nccc(Oc3ccc(NC(=O)OCc4ccccc4)c(C)c3C)c2cc1OC` [Example 219, Benzyl N-{4-[(6,7-dimethoxy-4-quinolyl)oxy]-2,3-dimethylphenyl}carbamate]: the 50% inhibitory concentration (IC50) (h-SCF 50 ng/ml) was less than 30 nM.

For the compound `COc1cc2ncnc(Oc3ccc(NC(=O)OCc4ccccc4)cc3)c2cc1OC` [Example 220, Benzyl N-{4-[(6,7-dimethoxy-4-quinazolinyl)oxy]phenyl}carbamate], the IC50 (h-SCF 50 ng/ml) stood at 77 nM.

`COc1cc2nccc(Oc3cc(C)c(NC(=O)OC4CCCCC4)cc3C)c2cc1OC` [Example 221, Cyclohexyl N-{4-[(6,7-dimethoxy-4-quinolyl)oxy]-2,5-dimethylphenyl}carbamate]: for the setting “h-SCF 50 ng/ml”, the IC50 stood at 109 nM.

For `COc1cc2nccc(Oc3ccc(NC(=O)OC4CCCCC4)c(C)c3C)c2cc1OC` [Example 222, Cyclohexyl N-{4-[(6,7-dimethoxy-4-quinolyl)oxy]-2,3-dimethylphenyl}carbamate], the IC50 (h-SCF 50 ng/ml) amounted to 101 nM.

For `COc1cc2nccc(Oc3cc(C)c(NC(=O)Oc4ccccc4)cc3C)c2cc1OC` [Example 224, Phenyl N-{4-[(6,7-dimethoxy-4-quinolyl)oxy]-2,5-dimethylphenyl}carbamate], where the note is “h-SCF 50 ng/ml”, the half-maximal inhibitory concentration (IC50) is 147 nM.

Turning to `COc1cc2ncnc(Oc3ccc(NC(=O)OCc4ccccc4)c(Cl)c3)c2cc1OC` [Example 225, Benzyl N-{2-chloro-4-[(6,7-dimethoxy-4-quinazolinyl)oxy]phenyl}carbamate], the IC50 (h-SCF 50 ng/ml) amounted to 453 nM.

Take `COc1cccc(COC(=O)Nc2ccc(Oc3ccnc4cc(OC)c(OC)cc34)cc2)c1` [Example 226, 3-Methoxybenzyl N-{4-[(6,7-dimethoxy-4-quinolyl)oxy]phenyl}carbamate]: the IC50 (h-SCF 50 ng/ml) was found to be 72 nM.

For the compound `COc1cc2nccc(Oc3ccc(NC(=O)OCc4ccccc4Cl)cc3)c2cc1OC` [Example 227, 2-Chlorobenzyl N-{4-[(6,7-dimethoxy-4-quinolyl)oxy]phenyl}carbamate], the IC50 (h-SCF 50 ng/ml) was 194 nM.

As to `COc1cc2nccc(Oc3ccc(NC(=O)OCc4cccc(Cl)c4)cc3)c2cc1OC` [Example 228, 3-Chlorobenzyl N-{4-[(6,7-dimethoxy-4-quinolyl)oxy]phenyl}carbamate], the IC50 (h-SCF 50 ng/ml) was 71 nM.

On to `COc1cc2nccc(Oc3ccc(NC(=O)OCc4ccc(Cl)cc4)cc3)c2cc1OC` [Example 229, 4-Chlorobenzyl N-{4-[(6,7-dimethoxy-4-quinolyl)oxy]phenyl}carbamate], for which the IC50 (h-SCF 50 ng/ml) worked out at 47 nM.

As for `C=CCCCOC(=O)Nc1ccc(Oc2ccnc3cc(OC)c(OC)cc23)cc1` [Example 266, 4-Pentenyl N-{4-[(6,7-dimethoxy-4-quinolyl)oxy]phenyl}carbamate], the IC50 (h-SCF 50 ng/ml) came to 34 nM.

Take `C=CCCCOC(=O)Nc1cc(C)c(Oc2ccnc3cc(OC)c(OC)cc23)cc1C` [Example 267, 4-Pentenyl N-{4-[(6,7-dimethoxy-4-quinolyl)oxy]-2,5-dimethylphenyl}carbamate]: the IC50 (h-SCF 50 ng/ml) came out at 35 nM.

Consider `C=CCCCOC(=O)Nc1ccc(Oc2ccnc3cc(OC)c(OC)cc23)c(C)c1C` [Example 268, 4-Pentenyl N-{4-[(6,7-dimethoxy-4-quinolyl)oxy]-2,3-dimethylphenyl}carbamate], for which, where the note is “h-SCF 50 ng/ml”, the IC50 came out at 34 nM.

As to `CCCCOC(=O)Nc1ccc(Oc2ncnc3cc(OC)c(OC)cc23)cc1Cl` [Example 345, Butyl N-{2-chloro-4-[(6,7-dimethoxy-4-quinazolinyl)oxy]phenyl}carbamate], the IC50 (h-SCF 50 ng/ml) was determined as 123 nM.

Regarding `CCCCC(CCCC)OC(=O)Nc1ccc(Oc2ncnc3cc(OC)c(OC)cc23)cc1Cl` [Example 372, 1-Butylpentyl N-{2-chloro-4-[(6,7-dimethoxy-4-quinazolinyl)oxy]phenyl}carbamate], the inhibition at 1 µM (figure in parentheses in −( )) came to 14%.

As to `C#CCC(CC)OC(=O)Nc1ccc(Oc2ncnc3cc(OC)c(OC)cc23)cc1OC` (stereo not drawn) [Example 502, 1-Ethyl-3-butynyl N-{4-[(6,7-dimethoxy-4-quinazolinyl)oxy]-2-methoxyphenyl}carbamate], the inhibition at 1 µM under setting [1] is 23%.

With `CCCCC(CCCC)OC(=O)Nc1ccc(Oc2ncnc3cc(OC)c(OC)cc23)cc1[N+](=O)[O-]` [Example 508, 1-Butylpentyl N-{4-[(6,7-dimethoxy-4-quinazolinyl)oxy]-2-nitrophenyl}carbamate], the inhibition at 1 µM under setting [1] came to 28%.

With `CCN(CC)CCCNC(=S)Nc1ccc(Oc2ncnc3cc(OC)c(OC)cc23)cc1` [Example 531, N-{4-[(6,7-Dimethoxy-4-quinazolinyl)oxy]phenyl}-N′-(3-diethylaminopropyl)thiourea], the inhibition at 1 µM under setting [1] was 31%.

`COc1cc2ncnc(Oc3ccc(NC(=S)NCCCN4CCN(C)CC4)cc3)c2cc1OC` [Example 536]: under setting [1], the inhibition at 1 µM was determined as 7%.

`COc1cc2nccc(Oc3ccc(NC(=O)NNc4ccccc4)c(F)c3)c2cc1OC` [Example 612, N-{4-[(6,7-Dimethoxy-4-quinolyl)oxy]-2-fluorophenyl}-N′-(phenylamino)urea]: the IC50 (50 ng/ml h-SCF) stood at 173 nM.

As for `COc1cc2nccc(Oc3ccc(NC(=O)NN4CCCCC4)c(F)c3)c2cc1OC` [Example 613, N-{4-[(6,7-Dimethoxy-4-quinolyl)oxy]-2-fluorophenyl}-N′-(1-piperidinyl)urea], the inhibition at 1 µM under setting [1] was 29%.

Regarding `COc1cc2ncnc(Oc3ccc(NC(=O)NCCN4CCCC4)cc3)c2cc1OC` [Example 621, N-{4-[(6,7-Dimethoxy-4-quinazolinyl)oxy]phenyl}-N′-(2-tetrahydro-1H-1-pyrrolylethyl)urea], the inhibition at 1 µM under setting [1] turned out to be 30%.

The IC50 is the concentration that gives 50% inhibition. As a reminder, the inhibition is the percentage by which the read-out fell short of the control.
